We go through 27 compounds from patent publication US9187472B2 (AbbVie Inc., priority 2012, dated 2015).

SMILES strings stand for the structures. pIC50: −log10 of the molar value.

Test [1] deals with NAMPT (human, recombinant, C-terminally His-tagged) (Homo sapiens, UniProt P43490). Description: Time-Resolved Fluorescence Resonance Energy Transfer (TR-FRET) Binding Assay of NAMPT. The settings on record: without substrates; 6.8 nM NAMPT, 200 nM probe, 3 hours equilibration. As to the method: Determination of the utility of compounds having Formula (I) as binders to and inhibitors of NAMPT was performed using Time-Resolved Fluorescence Resonance Energy Transfer (TR-FRET) binding assays.
Chain of NAMPT (human, recombinant, C-terminally His-tagged) (P43490 whole entry): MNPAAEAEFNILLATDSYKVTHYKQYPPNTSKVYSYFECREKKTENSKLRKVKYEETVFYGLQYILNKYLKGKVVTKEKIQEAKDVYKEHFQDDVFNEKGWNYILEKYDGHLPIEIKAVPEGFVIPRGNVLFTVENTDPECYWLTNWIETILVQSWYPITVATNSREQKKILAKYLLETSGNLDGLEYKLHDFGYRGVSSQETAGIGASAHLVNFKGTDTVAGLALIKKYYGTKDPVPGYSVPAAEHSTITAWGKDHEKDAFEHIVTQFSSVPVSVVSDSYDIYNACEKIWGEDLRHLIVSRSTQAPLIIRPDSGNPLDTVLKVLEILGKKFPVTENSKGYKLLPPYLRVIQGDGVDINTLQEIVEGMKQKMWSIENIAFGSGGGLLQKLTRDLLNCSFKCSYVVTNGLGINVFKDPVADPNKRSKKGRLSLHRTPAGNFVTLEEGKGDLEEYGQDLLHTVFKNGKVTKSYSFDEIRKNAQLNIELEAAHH
Time-Resolved Fluorescence Resonance Energy Transfer (TR-FRET) Binding Assay of NAMPT
Test compounds were serially diluted (typically 11 half log dilutions) in neat DMSO to 50× final concentrations prior to dilution with assay buffer (50 mM HEPES (NaOH), pH 7.5, 100 mM NaCl, 10 mM MgCl2, 1 mM DTT, 1% Glycerol) to 3× and 6% DMSO. Six μL were transferred to 384-well low-volume plates (Owens Corning #3673). To this, […] of a 1.5× solution containing enzyme, probe and antibody were added. Final concentrations in the 18 μL, reactions were 1× assay buffer, 2% DMSO, 6.8 nM NAMPT (human, recombinant, C-terminally His-tagged), 200 nM probe (a potent nicotinamide-competitive inhibitor conjugated to Oregon Green 488) and 1 nM Tb-anti-His antibody (Invitrogen # PV5895). Reactions were equilibrated at room temperature for 3 hours prior to reading on an Envision multi-label plate reader (Perkin Elmer; Ex=337 nm, Em=520 and 495 nm). Time-resolved FRET ratios (Em520/Em495) were normalized to controls, plotted as a function of compound concentration and fit with the four-parameter logistic equation to determine IC50s.

Test [2] addresses NAMPT (Homo sapiens, UniProt P43490). The experiment in a line: TR-FRET Binding Assay of NAMPT with PRPP. The note with it: with 200 μM PRPP and 2.5 mM ATP; 2 nM NAMPT, 2 nM probe, 16 hours equilibration. As to the method:
Time-Resolved Fluorescence Resonance Energy Transfer (TR-FRET) Binding Assay of NAMPT with PRPP
Compound handling and data processing were identical to the assay in the absence of substrates (above). Final concentrations were 1× assay buffer, 2% DMSO, 2 nM NAMPT, 2 nM probe, 1 nM Tb-anti-His antibody (Invitrogen # PV5895), 200 μM PRPP and 2.5 mM ATP. Reactions were equilibrated for 16 hours prior to measurement to allow for potential enzymatic modification of test compounds.

Test [3] relates to PC3 cells. The experiment in a line: NAMPT Cell Proliferation Assay. The class given is cell-based. The note with it: Homo sapiens, PC-3, 120 h, 5 days incubation, cell viability by Cell Titer Glo. The method, boiled down:
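IC50 values derive from sigmoidal dose-response fits of percent inhibition of PC3 viability, measured by luminescence after 5 days of compound treatment. Cells (500/well, RPMI containing 10% heat-inactivated FBS) are allowed to attach overnight, and compounds are tested at 10-fold dilutions between 10 μM and 1×10^−5 μM.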

Chain of NAMPT (P43490 whole entry): as above

Consider `CC(C)(C)OC(=O)N1CC=C(c2ccc(NC(=O)Nc3ccc4nccn4c3)cc2)CC1` [Example 25, tert-butyl 4-{4-[(imidazo[1,2-a]pyridin-6-ylcarbamoyl)amino]phenyl}-3,6-dihydropyridine-1(2H)-carboxylate], for which the negative logarithm of the IC50 (pIC50) in test [1] is 6.29; in test [2], 9.15; in test [3] it was 6.84.
On to `O=C(CC1CCOC1)Nc1ccc(NC(=O)Nc2ccc3nccn3c2)cc1` (stereo not drawn) [Example 26, N-{4-[(imidazo[1,2-a]pyridin-6-ylcarbamoyl)amino]phenyl}-2-(tetrahydrofuran-3-yl)acetamide], for which the pIC50 in test [1] was 6.68; in test [2], 8.96; in test [3], 6.58.
For `CC(=O)Nc1ccc(NC(=O)Nc2ccc3nccn3c2)cc1` [Example 27] the same measures were 6.12, 9.18 and 5.12.
On the same counts, the results for `O=C(Nc1ccc(C2=CCN(C(=O)CC3CCOC3)CC2)cc1)Nc1ccc2nccn2c1` (stereo not drawn) [Example 28, 1-imidazo[1,2-a]pyridin-6-yl-3-{4-[1-(tetrahydrofuran-3-ylacetyl)-1,2,3,6-tetrahydropyridin-4-yl]phenyl}urea] are 6.82, 9.72 and 7.85.
On the same counts, the results for `CC(C)(O)C(=O)N1CC=C(c2ccc(NC(=O)Nc3ccc4nccn4c3)cc2)CC1` [Example 29, 1-{4-[1-(2-hydroxy-2-methylpropanoyl)-1,2,3,6-tetrahydropyridin-4-yl]phenyl}-3-imidazo[1,2-a]pyridin-6-ylurea] are 6.77, 9.63 and 7.36.
In the case of `O=C(Nc1ccc(C2=CCN(C(=O)CN3CCOCC3)CC2)cc1)Nc1ccc2nccn2c1` [Example 30, 1-imidazo[1,2-a]pyridin-6-yl-3-{4-[1-(morpholin-4-ylacetyl)-1,2,3,6-tetrahydropyridin-4-yl]phenyl}urea], the results for the negative logarithm of the IC50 (pIC50) in test [1], in test [2] and in test [3] were 5.93, 9.11 and 7.42, respectively.
Take `CCOCC(=O)N1CC=C(c2ccc(NC(=O)Nc3ccc4nccn4c3)cc2)CC1` [Example 31, 1-{4-[1-(ethoxyacetyl)-1,2,3,6-tetrahydropyridin-4-yl]phenyl}-3-imidazo[1,2-a]pyridin-6-ylurea]: the pIC50 is 6.13 in test [1], 9.51 in test [2] and 6.97 in test [3].
As for `COCCOCC(=O)N1CC=C(c2ccc(NC(=O)Nc3ccc4nccn4c3)cc2)CC1` [Example 32, 1-imidazo[1,2-a]pyridin-6-yl-3-(4-{1-[(2-methoxyethoxy)acetyl]-1,2,3,6-tetrahydropyridin-4-yl}phenyl)urea], the figures for the pIC50 in test [1], in test [2] and in test [3] were 6.04, 9.77 and 6.55, respectively.
For `O=C(Nc1ccc(C2=CCN(C(=O)C3CCCO3)CC2)cc1)Nc1ccc2nccn2c1` (stereo not drawn) [Example 33, 1-imidazo[1,2-a]pyridin-6-yl-3-{4-[1-(tetrahydrofuran-2-ylcarbonyl)-1,2,3,6-tetrahydropyridin-4-yl]phenyl}urea] the same measures were 6.43, 9.26 and 7.17.
For `O=C(Nc1ccc(C2=CCN(C(=O)C3CCOCC3)CC2)cc1)Nc1ccc2nccn2c1` [Example 34, 1-imidazo[1,2-a]pyridin-6-yl-3-{4-[1-(tetrahydro-2H-pyran-4-ylcarbonyl)-1,2,3,6-tetrahydropyridin-4-yl]phenyl}urea] the same measures were 6.68, 9.42 and 7.42.
Take `O=C(Nc1ccc(C2=CCN(C(=O)C3COCCO3)CC2)cc1)Nc1ccc2nccn2c1` (stereo not drawn) [Example 35, 1-{4-[1-(1,4-dioxan-2-ylcarbonyl)-1,2,3,6-tetrahydropyridin-4-yl]phenyl}-3-imidazo[1,2-a]pyridin-6-ylurea]: the pIC50 was 6.41 in test [1], 9.10 in test [2] and 7.23 in test [3].
On the same counts, the results for `CN1CCC(C(=O)N2CC=C(c3ccc(NC(=O)Nc4ccc5nccn5c4)cc3)CC2)CC1` [Example 36, 1-imidazo[1,2-a]pyridin-6-yl-3-(4-{1-[(1-methylpiperidin-4-yl)carbonyl]-1,2,3,6-tetrahydropyridin-4-yl}phenyl)urea] are 6.45, 9.35 and 7.29.
On the same counts, the results for `O=C(Nc1ccc(C2=CCN(C(=O)C3CCS(=O)(=O)CC3)CC2)cc1)Nc1ccc2nccn2c1` [Example 37, 1-(4-{1-[(1,1-dioxidotetrahydro-2H-thiopyran-4-yl)carbonyl]-1,2,3,6-tetrahydropyridin-4-yl}phenyl)-3-imidazo[1,2-a]pyridin-6-ylurea] are 6.89, 9.51 and 7.46.
On to `CC(C)C(=O)N1CC=C(c2ccc(NC(=O)Nc3ccc4nccn4c3)cc2)CC1` [Example 38, 1-imidazo[1,2-a]pyridin-6-yl-3-{4-[1-(2-methylpropanoyl)-1,2,3,6-tetrahydropyridin-4-yl]phenyl}urea], for which the results for the pIC50 in test [1], in test [2] and in test [3] were 6.61, 9.58 and 7.18, respectively.
On the same counts, the results for `CCOCC(=O)Nc1ccc(NC(=O)Nc2ccc3nccn3c2)cc1` [Example 39, 2-ethoxy-N-{4-[(imidazo[1,2-a]pyridin-6-ylcarbamoyl)amino]phenyl}acetamide] are 6.09, 9.59 and 5.14.
On the same counts, the results for `O=C(CC1CCOCC1)Nc1ccc(NC(=O)Nc2ccc3nccn3c2)cc1` [Example 40] are 7.39, 9.66 and 7.15.
`O=C(CN1CCOCC1)Nc1ccc(NC(=O)Nc2ccc3nccn3c2)cc1` [Example 41]: the values for the pIC50 in test [1], in test [2] and in test [3] were 6.53, 8.94 and 6.86, respectively.
`COCCOCC(=O)Nc1ccc(NC(=O)Nc2ccc3nccn3c2)cc1` [Example 42, N-{4-[(imidazo[1,2-a]pyridin-6-ylcarbamoyl)amino]phenyl}-2-(2-methoxyethoxy)acetamide]: the figures for the pIC50 in test [1], in test [2] and in test [3] were 6.16, 9.42 and 5.80, respectively.
For `COCC(C)C(=O)Nc1ccc(NC(=O)Nc2ccc3nccn3c2)cc1` (stereo not drawn) [Example 43] the same measures were 5.36, 9.77 and 5.13.
For `CCCC(=O)Nc1ccc(NC(=O)Nc2ccc3nccn3c2)cc1` [Example 44] the same measures were 6.40, 9.30 and 5.80.
On the same counts, the results for `O=C(CCC(F)(F)F)Nc1ccc(NC(=O)Nc2ccc3nccn3c2)cc1` [Example 45, 4,4,4-trifluoro-N-{4-[(imidazo[1,2-a]pyridin-6-ylcarbamoyl)amino]phenyl}butanamide] are 6.06, 8.92 and 5.68.
Consider `O=C(Nc1ccc(NC(=O)C2CCOCC2)cc1)Nc1ccc2nccn2c1` [Example 46], for which the figures for the pIC50 in test [1], in test [2] and in test [3] were 6.11, 9.50 and 5.20, respectively.
For `CC(C)CCC(=O)Nc1ccc(NC(=O)Nc2ccc3nccn3c2)cc1` [Example 47, N-{4-[(imidazo[1,2-a]pyridin-6-ylcarbamoyl)amino]phenyl}-4-methylpentanamide] the same measures were 7.24, 9.21 and 7.19.
With `CN1CCC(C(=O)Nc2ccc(NC(=O)Nc3ccc4nccn4c3)cc2)CC1` [Example 48], the pIC50 in test [1] was < 5.00; in test [2], 9.77; in test [3], 5.27.
For `O=C(Nc1ccc(NC(=O)C2CCS(=O)(=O)CC2)cc1)Nc1ccc2nccn2c1` [Example 49] the same measures were 6.35, 9.50 and 5.15.
On the same counts, the results for `O=C(Nc1ccc(NC(=O)C2COCCO2)cc1)Nc1ccc2nccn2c1` (stereo not drawn) [Example 50] are 5.79, 9.09 and 5.21.
For `CC(C)Cn1cc(-c2ccc(NC(=O)Nc3ccc4nccn4c3)cc2)cn1` [Example 51, 1-imidazo[1,2-a]pyridin-6-yl-3-{4-[1-(2-methylpropyl)-1H-pyrazol-4-yl]phenyl}urea] the same measures were 6.58, 9.28 and 7.08.
